Values of other authors as cited in patent publication US20140127179A1, “Natural Killer Cell Formulations” (SCIENTIFIC FORMULATIONS, LLC, priority 2012, published 2014).
Where two headings read alike, the source gives them in different places.

Tests used:
[1] = tested on: Natural Killer cells (NKC); set-up: key: +: Increased NK cell activity was shown; ±: mixed results; settings: summary of literature studies
cancer cells = tested on: cancer cells; set-up: key: +: Direct Anti-cancer Activity was shown; settings: direct anti-cancer activity, summary of literature studies
3T3-SV40 fibroblasts = settings: for fibroblast sensitivity to lytic activity of NKC: in several hours, NAC 10 mM
[2] = tested on: interferon-gamma-producing NK cell; settings: nutritional intake of 10 mg
[3] = tested on: Human promyelocytic leukemia cells HL60; settings: HL60 cultured with 30 nM for three years, injected into nu/nu mice
NK cell activity [4] = settings: combinations of 1 mM thioproline and NAC, 5 μM Vitamin C and vitamin E; all ages studied
NK cell function = settings: two weeks of high-dose treatment, cancer patients
tumor cells = settings: inhibited platelet aggregation
[5] = doses up to 5,000 mg
[6] = tested on: NK cell and ADCC activity; settings: CLL patients, from 0.01 to 1 microgram/ml
NK cell activity [7] = settings: 7 days after the drug injection
[8] = tested on: NK cell activity of peripheral mononuclear cells
[9] = tested on: lymphokine-activated killer (LAK) cell; settings: PPS, MPS and LEN, the three combined; P<0.01
[10] = tested on: transformed and embryonic cells
metastases = settings: NAC administered with haemin and IL-2
[11] = 42 men, 300 μg of Se

In the case of C=C1CC[C@H](O)C/C1=C/C=C1\CCC[C@]2(C)[C@@H]([C@H](C)CCCC(C)C)CC[C@@H]12 [Vitamin D3], the “NKC Activity” value [1] is listed as “+” and the Anti-Cancer (cancer cells) is listed as “+”.
In the case of COc1cc(/C=C/C(=O)CC(=O)/C=C/c2ccc(O)c(OC)c2)ccc1O [Curcumin], the “NKC Activity” value [1] is listed as “+”.
In the case of O=C(O)CCCCC1CCSS1 (stereo not drawn) [ALA, Alpha-Lipoic Acid], the “fibroblast sensitivity to lytic activity of NKC” value (3T3-SV40 fibroblasts) is listed as “reduced significantly” and the “NKC Activity” value [1] is listed as “±”.
For [Zn] [Zinc], the “NKC Activity” value [1] is listed as “+”, the Anti-Cancer (cancer cells) is listed as “+” and the “quantity of interferon-gamma-producing NK cell” value [2] is listed as “increases”.
For C=C1/C(=C\C=C2/CCC[C@]3(C)[C@@H]([C@H](C)CCCC(C)(C)O)CC[C@@H]23)C[C@@H](O)C[C@@H]1O [1,25 D3, 1,25-dihydroxyvitamin D3], the tumor growth [3] is given as “reduced rate of tumor growth”.
In the case of Oc1ccc(C=Cc2cc(O)cc(O)c2)cc1 [Resveratrol], the “NKC Activity” value [1] is listed as “+” and the Anti-Cancer (cancer cells) is listed as “+”.
In the case of Vitamin E, the NK cell activity (NK cell activity [4]) is given as “enhancement”, the “NKC Activity” value [1] is given as “+” and the Anti-Cancer (cancer cells) is given as “+”. The NK cell function (NK cell function) was “enhanced”.
For O=C1O[C@H]([C@@H](O)CO)C(O)=C1O [Vitamin C, Ascorbic acid], the NK cell activity (NK cell activity [4]) is listed as “enhancement”, the “increase of NK cell cytotoxicity” value (tumor cells) is listed as 285% and the “NKC function of survivors versus baseline” value (end-stage cancers; 16 survivors, p<0.01) is listed as “significantly higher”. For the same compound, the patients still alive (end-stage cancers; as of a mean of 6 months) was 16/20, the “NKC Activity” value [1] was “+” and the Anti-Cancer (cancer cells) was “+”. For the same compound, the “mutagenic lesions; negative effects on NK cell activity, apoptosis or cell cycle” value [5] was “did not induce mutagenic lesions nor had negative effects”.
In the case of Lentinan, the “NKC Activity” value [1] is given as “+”, the “enhancement of NK cell and ADCC activity” value [6] is given as “dose-related increase” and the Anti-Cancer (cancer cells) is given as “+”. The NK cell activity (NK cell activity [7]) was “significantly enhanced”, the “interferon level in the peripheral blood circulation” value ([8]; cancer patients, 12 h following administration) was “elevated” and the “NK cell activity of peripheral mononuclear cells” value ([8]; cancer patients, in 48 h) was “enhanced”. For the same compound, the “patients with increased NK cell activity of lymphocytes” value ([8]; n=11, i.v. 2 mg, on the following day) was “four” and the “reduction of the dose of rIL-2 needed to have the same LAK activity” value [9] was 50%.
In the case of CC(C)=CCC[C@](C)(O)[C@H]1CC[C@]2(C)[C@@H]1[C@H](O)C[C@@H]1[C@@]3(C)CC[C@H](O[C@@H]4O[C@H](CO)[C@@H](O)[C@H](O)[C@H]4O)C(C)(C)[C@@H]3CC[C@]12C [Ginsenoside Rh2], the “growth of B16 melanoma cells” value (B16 melanoma cells; mouse, in vivo) is given as “inhibits” and the “NK cell activity in spleen cells” value (B16 melanoma cells; tumor-bearing nude mice) is given as “increases”.
In the case of CC(=O)N[C@@H](CS)C(=O)O [NAC, N-Acetyl-Cysteine], the NK cell activity (NK cell activity [4]) is given as “enhancement”, the “response to NK cell activity after removal of the antioxidant” value (3T3-SV40 fibroblasts; 18-20 h after NAC removal) is given as “resistance to NK cell activity” and the “sensitivity to lysis by NKC mouse splenocytes” value (3T3-SV40 fibroblasts; 18-20 h cultivation, 10 mM) is given as “did not change their sensitivity”. For the same compound, the “fibroblast sensitivity to lytic activity of NKC” value (3T3-SV40 fibroblasts) was “did not change it”, the “susceptibility of transformed and embryonic cells to NK cell activity” value ([10]; 10 mM) was “loss of susceptibility” and the “susceptibility of murine embryonic fibroblasts (MEFs) to NK cell activity” value ([10]; pretreated with 10 mM) was “lose their susceptibility”. The “NKC Activity” value [1] was “+” and the decrease in metastases (metastases) was 63%.
In the case of O=C(O)[C@@H]1CSCN1 [thioproline], the NK cell activity (NK cell activity [4]) is listed as “enhancement”.
In the case of [Se] [Selenium], the “counts of NKC and T lymphocytes expressing both sub-units of IL2R” value [11] is given as “increased counts”, the “NKC Activity” value [1] is given as “+” and the Anti-Cancer (cancer cells) is given as “+”.
For O=c1c(-c2ccc(O)cc2)coc2cc(O)cc(O)c12 [Geinstein, Genistein], the “NKC Activity” value [1] is listed as “+”.
